Source: patent US6355261B1, “Ultraviolet radiation absorbing waxes useful in cosmetic compositions” (priority 1999, dated 2002)

Key:
[1] = Ultraviolet radiation transmittance and SPF of sunscreen lotions, LABSPHERE Ultraviolet Transmittance Analyzer
Experimental: Sunscreen lotion compositions were made and tested for UV absorbance. A control sample sunscreen lotion was made without a compound of formula (I) and a test sample was made in accordance with the invention, using a compound of formula (I) wherein n is 6 (HDDS). Table 1 summarizes the composition of the control and HDDS sunscreen lotions, by wt. %.
To prepare the sunscreen lotions, the A phase ingredients were blended together and heated to 90° C. to dissolve the oxybenzone. Next, the B phase ingredients were added with stirring until homogeneous. In a separate vessel, EDTA was dissolved in water and heated to 85° C. A preblended mixture of preservative, butylene glycol, and glycerin was added to the EDTA/water solution. In a separate vessel, carbomer was dispersed in 50 g water and set aside. With homogenization, the A+B oil phase was added to the C water phase. Next, the pre-dispersed carbomer D phase was added to the A+B+C mixture. While maintaining the temperature at 85° C., the mixture was homogenized for about 10 minutes, and then removed from heat and stirred with a propellor while cooling. When the temperature was below 40° C., the neutralizer E was slowly added and the mixture was stirred until a smooth, homogeneous lotion resulted.
Ultraviolet radiation transmittance and SPF of the control and HDDS samples were measured over the range 290 to 400 nm using a LABSPHERE Ultraviolet Transmittance Analyzer. Five scans were performed on each sample. Critical Wavelength (nm) and SPF data are reported in Table 2 below for the control and HDDS samples.
The ordinate represents absorbance, in units log(base 10)*(1/transmittance (%)), and the abscissa represents wavelength in nanometers.

[2] = Solubility of HDDS in esters of dibasic acids; type: physicochemical
[3] = HDDS in a sunscreen lotion versus control lotion

- soluble in diisopropyl adipate ([2]; solvent diisopropyl adipate): at least 5 % by weight
- soluble in dilsopropyl sebacate ([2]; solvent dilsopropyl sebacate): at least 5 % by weight
- soluble in dioctyl adipate ([2]; solvent dioctyl adipate): at least 5 % by weight
- soluble in dioctyl maleate ([2]; solvent dioctyl maleate): at least 5 % by weight
- soluble in dioctyl sebacate ([2]; solvent dioctyl sebacate): at least 5 % by weight
Compound: O=C(OCCCCCCOC(=O)c1ccccc1O)c1ccccc1O [HDDS, hexanediol disalicylate]
- UV absorbance of the lotion ([1]; FIG. 1, average of five scans, versus control sample): increases UV absorbance of the lotion at every wavelength of radiation measured
- SPF value of the lotion [1, 3]: boosts the SPF value
- transmittance of UVA and UVB radiation [1, 3]: reduces the transmittance of UVA and UVB radiation
